Broadly, the LD50 is the dose expected to kill half of the subjects tested. Higher therefore signals lower toxicity.

For one data set, the system named is thromboxane. Particulars: daily dose; very substantially below the minimum percentage; cited from earlier work.
The test system of the next data set is vascular prostacycline. Particulars: daily dose; cited from earlier work.
The subject of another data set is serum thromboxane B2. Briefly: inhibition of serum thromboxane B2 after repeated administration for 28 days. It is filed as in vivo, human. To be noted: as from the third day of treatment; 320 mg encapsulated or 350 mg control ASA daily. As to the method:
(§1) Twelve healthy male volunteers were assigned to one or other of the following two treatments according to a randomization schedule obtained by drawing lots. Group A received one 320 mg gelatin capsule of encapsulated ASA (microcapsules M1 of Example 1) orally every morning for 28 days. Group B received 350 mg of non-encapsulated control ASA in solution every morning for 28 days.
In both cases, the subjects took the treatments with 200 ml of water.
Samples (5 cl) for measurement of the serum thromboxane B2 were taken before administration of the daily treatment on D1, D2, D3, D4, D5, D14, D21, D27, D28 and D42.
The aspirin and salicylic acid were analyzed using an HPLC method specially developed for assaying low levels in biological media. The serum thromboxane B2 was analyzed using an enzyme immunoassay method described by […] et al. [Analytical Chemistry 57, 1170-1173 (1985); Ann. Biol. Clin. 43, 475-484 (1985)]. For the urine samples, the 11-dehydrothromboxane B2, dinorthromboxane B2 and dinor-6-ketoprostaglandin F1α were analyzed by the method cited above, with prior extraction in the solid phase and purification by thin layer chromatography. This method was validated by gas chromatography coupled with mass spectrometry using a negative ion ionization detector [LELLOUCHE et al., Prostaglandine 40, 297-310 (1990)].

Another data set concerns 11-dehydrothromboxane B2. Briefly: inhibition of urinary 11-dehydrothromboxane B2, repeated administration. Particulars: 28 days; 320 mg encapsulated or 350 mg control ASA daily. It is filed as in vivo, human. As to the method: as §1
(§2) During each period, urine samples were taken from each subject for assaying the creatininuria and measuring the platelet and vascular prostaglandins.
(§3) The morning urine was collected at 7 am on days D1, D2, D14, D27 and D28. The subjects were asked to empty their bladder between midnight and 1 am and then not to urinate again until the morning so that the 6-hour urine could be obtained. The morning urination was performed before the subjects got up. Of each sample collected: […]
(§4) The aspirin and salicylic acid were analyzed using an HPLC method specially developed for assaying low levels in biological media. The serum thromboxane B2 was analyzed using an enzyme immunoassay method described by […] et al. [Analytical Chemistry 57, 1170-1173 (1985); Ann. […] For the urine samples, the 11-dehydrothromboxane B2, dinorthromboxane B2 and dinor-6-ketoprostaglandin F1α were analyzed by the method cited above, with prior extraction in the solid phase and purification by thin layer chromatography. […]

Data set [1] has as its system urinary dinorthromboxane B2. The experiment in a line: inhibition of urinary dinorthromboxane B2, repeated administration. Type of data set: in vivo, human. Particulars: 28 days; 320 mg encapsulated or 350 mg control ASA daily. As to the method: as §1, §2, §3, §4
The subject of a further data set is prostacycline. Briefly: inhibition of prostacycline (urinary dinor-6-ketoprostaglandin F1α), repeated administration. It is filed as in vivo, human. Particulars: 28 days; 320 mg encapsulated or 350 mg control ASA daily. How it is done: as §1, §2, §3, §4
For data set [2], the system named is thromboxane B2 of renal origin. The experiment in a line: urinary excretion of thromboxane B2 (renal origin), repeated administration. It is filed as in vivo, human. Particulars: 28 days; 320 mg encapsulated or 350 mg control ASA daily. How it is done: as §1, §2
(§5) The morning urine was collected at 7 am on days D1, D2, D14, D27 and D28. The subjects were asked to empty their bladder between midnight and 1 am and then not to urinate again until the morning so that the 6-hour urine could be obtained. The morning urination was performed before the subjects got up. Of each sample collected:
(§6) 40 ml were transferred to two appropriately labeled 20 ml polypropylene tubes, which were then frozen immediately at -20° C.
(§7) Thromboxane B2 and 6-ketoprostaglandin F1α are metabolites of […] of renal origin.

The test system of another data set is 6-ketoprostaglandin F1α. The experiment in a line: urinary excretion of 6-ketoprostaglandin F1α (renal origin), repeated administration. Type of data set: in vivo, human. To be noted: 28 days; 320 mg encapsulated or 350 mg control ASA daily. As to the method:
as §1, §2, §5, §6, §7

Data set [3] is described as follows: acute oral toxicity in rats. Particulars: rat, in vivo, 14 days. It is filed as in vivo, rat (Sprague-Dawley). How it is done: (§8) The microcapsules of aspirin M1 prepared according to Example 1 were subjected to a toxicological study by comparison with commercial aspirin (CA) in the form of a white powder. The acute toxicity of these two pharmaceutical forms of aspirin was evaluated and compared by oral administration to rats.
(§9) Each of the two formulations of the product was administered orally to groups of 10 Sprague-Dawley rats (5 males and 5 females) in a volume of 10 ml/kg and in suspension in 0.5% carboxymethyl cellulose. […] All the animals were placed on a water diet before the treatment.
(§10) The mortality, the general behavior and the weight change of the surviving animals were followed for a period of 14 days after the single administration of the product. An anatomicopathological examination was carried out on each of the animals found dead or sacrificed at the end of the study.
(§11) The LD50 was calculated by Finney's method.

A further data set deals with Sprague-Dawley rats. The experiment in a line: acute oral toxicity in rats. It is filed as in vivo, rat (Sprague-Dawley). As to the method:
as §8, §9, §10, §11

`CC(=O)Oc1ccccc1C(=O)O` [conventional aspirin, acetylsalicylic acid]: the thromboxane inhibition in the data set with thromboxane is under 95%. For the same compound, the “inhibition of vascular prostacycline” value in the data set with vascular prostacycline is recorded as 25%.
Consider `CC(=O)Oc1ccccc1C(=O)O` [control ASA, acetylsalicylic acid], for which, in the data set with serum thromboxane B2, the “inhibition of thromboxane originating from the platelets” value came to 98.15%. In the data set with 11-dehydrothromboxane B2, the “inhibition of urinary metabolite of thromboxane (11-dehydrothromboxane B2, first value pair)” value is 75.6%. For the same compound, the “inhibition of urinary metabolite of thromboxane (dinorthromboxane B2, second value pair)” value in [1] was determined as 68.9%. In addition, the “inhibition of the prostacycline” value with prostacycline was determined as 43.2%. For the same compound, in data set [2], the “inhibition of prostaglandins of renal origin (thromboxane B2, first value pair)” value was determined as 42.8%. For the same compound, the “inhibition of prostaglandins of renal origin (6-ketoprostaglandin F1α, second value pair)” value with 6-ketoprostaglandin F1α is listed as 34.6%.
`CC(=O)Oc1ccccc1C(=O)O` [CA, acetylsalicylic acid]: in [3], the LD50 at 336 h amounted to 1430 mg/kg. For the same compound, the autopsy findings entry was “no macroscopic anomalies” in the data set on Sprague-Dawley rats (740 and 1110 mg/kg); “abnormally blackish coloration of the liver, a discoloration with wall thickening in the digestive tract (intestines and stomach) and reddish petechiae in the stomach” in the data set with Sprague-Dawley rats (1670 and 2500 mg/kg, animals found dead). Also, in the data set on Sprague-Dawley rats (CA 740-2500 mg/kg (between day 1 and day 5), CRA 2500 mg/kg (throughout the study)), the weight change entry was “slight drop in the weight gain, related to the dose administered”. The general behavior entry in the data set on Sprague-Dawley rats (CA 740-2500 mg/kg, CRA 2500 mg/kg) was “a drop in the spontaneous activity, related to the dose administered, and piloerection”. In addition, in the data set on Sprague-Dawley rats (probability threshold of 95%), the “LD50, lower limit of the confidence interval” value is reported as 936 mg/kg. Besides, in the data set on Sprague-Dawley rats (probability threshold of 95%), the “LD50, upper limit of the confidence interval” value came to 2394 mg/kg.

Source of the values: patent US5846566A, “Microcapsules for the controlled release of acetylsalicylic acid in the gastrointestinal environment” (Flamel Technologies, priority 1993, dated 1998).
